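Cultured in 96-well plates, cells were exposed to test compound for 48 hours across five concentrations. Abbreviation: GI50, concentration required for 50% inhibition of growth.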 The source made the active and inactive calls. Rule as the data show it: active = GI50 up to about 1.1 µM and inactive = higher.

What all share (assay): inhibition of tumour cell growth, NCI panel, 48 h
Experiment [1] has as its system OVCAR-5.
For experiment [2], the system named is COLO 205.
For experiment [3], the system named is SF-539.
In experiment [4] the test system is SF-268.
The test system of experiment [5] is NCI-H23.
Experiment [6] has as its system U-251.
Experiment [7] has as its system A549.
Experiment [8] relates to SNB-19.
Experiment [9] deals with KM12.
Experiment [10] deals with ACHN.
The subject of experiment [11] is SK-MEL-28.
For experiment [12], the system named is MOLT-4.
Experiment [13] relates to OVCAR-8.
For experiment [14], the system named is LXFL 529.
Experiment [15] deals with NCI-H226.
Experiment [16] deals with SN12C.
The test system of experiment [17] is SK-MEL-2.

As for `CN(C)C(=S)/N=c1\ssc(=S)n1Cc1ccncc1`, the GI50 in experiment [1] is 40.8 µM (inactive); in experiment [2], > 100 µM (inactive); in experiment [3] it was 21.2 µM (inactive); in [4], 24.3 µM (inactive); in experiment [5], 23.9 µM (inactive); in experiment [6], 14.7 µM (inactive). The GI50 is 33.3 µM (inactive) in experiment [7]; 29.2 µM (inactive) in experiment [8]; 4.79 µM (inactive) in [9]; 29.8 µM (inactive) in experiment [10]; 35.1 µM (inactive) in experiment [11]; 14 µM (inactive) in [12]. The GI50 in experiment [13] was 23.1 µM (inactive); in [14], 16.3 µM (inactive); in experiment [15], > 100 µM (inactive); in experiment [16], > 100 µM (inactive); in experiment [17], 17.2 µM (inactive).

On to `Cc1cc([N+](=O)[O-])ccc1Sc1c2ccccc2nc2cc(Cl)ccc12`, for which the GI50 in experiment [1] is 56.2 µM (inactive); in [2], 38.4 µM (inactive); in experiment [3], 25.9 µM (inactive); in experiment [4], 29.6 µM (inactive); in experiment [5], 28.8 µM (inactive); in experiment [6], 27.8 µM (inactive). Moreover, the GI50 in [7] was 46.5 µM (inactive); in experiment [8], 41.3 µM (inactive); in experiment [9] it was 18.6 µM (inactive); in experiment [10] it was 44.9 µM (inactive); in [11], > 100 µM (inactive); in experiment [12], 21.3 µM (inactive). Also, the GI50 in [13] was 21.8 µM (inactive); in experiment [14], 31 µM (inactive); in experiment [15], 61.5 µM (inactive); in experiment [16], 30.8 µM (inactive); in experiment [17], 22.9 µM (inactive).

Turning to `COc1ccccc1C12OC(=O)C1(C)Oc1ccccc1C2=O` (stereo not drawn), the GI50 in [1], in [2], in experiment [3], in experiment [4], in experiment [5] and in experiment [6] was > 100 µM (inactive) each time. Moreover, the GI50 in experiment [7], in experiment [8], in [9], in experiment [10], in experiment [11] and in experiment [12] was > 100 µM (inactive) each time. Further, the GI50 in [13], in experiment [14], in experiment [15], in experiment [16] and in [17] was > 100 µM (inactive) each time.

`N#Cc1c(C[n+]2ccccc2)c2ccccc2oc1=O`: the GI50 in experiment [1], in experiment [2], in experiment [3], in [4], in experiment [5] and in experiment [6] was > 100 µM (inactive) throughout. Besides, the GI50 in experiment [7], in experiment [8], in experiment [9], in experiment [10], in experiment [11] and in experiment [12] was > 100 µM (inactive) throughout. The GI50 in [13], in experiment [14], in experiment [15], in experiment [16] and in experiment [17] was > 100 µM (inactive) in each case.

For `NC1=NN(c2ccccc2)C(=O)C1/C(=N\NC(=O)c1cc2ccccc2cc1O)C(=O)Nc1ccc(Cl)cc1` (stereo not drawn), the GI50 is 31.4 µM (inactive) in experiment [1]; 23.1 µM (inactive) in [2]; 23.9 µM (inactive) in experiment [3]; 12.7 µM (inactive) in experiment [4]; 24.7 µM (inactive) in experiment [5]; 31.5 µM (inactive) in experiment [6]. Also, the GI50 is 44.5 µM (inactive) in [7]; 37.8 µM (inactive) in experiment [8]; 27.9 µM (inactive) in experiment [9]; 26 µM (inactive) in [10]; 25.1 µM (inactive) in [11]; 6.78 µM (inactive) in [12]. For the same compound, the GI50 in [13] is 20.8 µM (inactive); in [14] it was 22.2 µM (inactive); in experiment [15] it was 23.6 µM (inactive); in experiment [16] it was 36.8 µM (inactive); in experiment [17], 23.2 µM (inactive).

In the case of `C[C@@]1(O)CC[C@]2(C)C3CCCC3[C@H]12` (stereo partly drawn), the GI50 in experiment [1], in experiment [2], in experiment [3], in [4], in experiment [5] and in experiment [6] was > 100 µM (inactive) throughout. The GI50 in [7], in experiment [8], in experiment [9], in experiment [10], in [11] and in experiment [12] was > 100 µM (inactive) throughout. The GI50 in experiment [13], in [14], in experiment [15], in experiment [16] and in experiment [17] was > 100 µM (inactive) in each case.

With `CC(=O)OC1OC2C(NC(=O)OC(C)(C)C)C1CC2(OCc1ccccc1)OCc1ccccc1` (stereo not drawn), the GI50 in experiment [1] was 28.3 µM (inactive); in [2] it was 21.7 µM (inactive); in [3], 18.1 µM (inactive); in [4], 35.7 µM (inactive); in experiment [5], 18.8 µM (inactive); in experiment [6] it was 14.4 µM (inactive). Also, the GI50 in [7] was 36.5 µM (inactive); in experiment [8], 45.1 µM (inactive); in experiment [9] it was 27.8 µM (inactive); in experiment [10], 22.4 µM (inactive); in [11], 20.9 µM (inactive); in experiment [12], 9.71 µM (inactive). For the same compound, the GI50 was 53.8 µM (inactive) in [13]; 20 µM (inactive) in experiment [14]; 24.7 µM (inactive) in [15]; 27.2 µM (inactive) in experiment [16]; 19.8 µM (inactive) in experiment [17].

As for `COc1cc([C@@H]2c3cc4c(cc3[C@@H](NC(=O)c3ccc([N+](=O)[O-])cc3)C3COC(=O)[C@@H]32)OCO4)cc(OC)c1O` (stereo partly drawn), the GI50 in experiment [1] is 1.87 µM (inactive); in [2], 2.13 µM (inactive); in experiment [3] it was 0.275 µM (active); in experiment [4] it was 1.6 µM (inactive); in [5], 0.258 µM (active); in experiment [6], 0.108 µM (active). In addition, the GI50 was 0.0189 µM (active) in experiment [7]; 0.315 µM (active) in experiment [8]; 1.08 µM (active) in [9]; 0.194 µM (active) in experiment [10]; 1.97 µM (inactive) in experiment [11]; < 0.01 µM (active) in experiment [12]. For the same compound, the GI50 in [13] is 0.923 µM (active); in experiment [14] it was 3.13 µM (inactive); in experiment [15], 0.104 µM (active); in experiment [16], 0.215 µM (active); in experiment [17] it was 2.83 µM (inactive).

Take `CCOc1ccc2c(c1)[n+]([O-])c(-c1ccc(Cl)cc1)c(N)[n+]2[O-]`: the GI50 in [1], in [2], in experiment [3], in experiment [4], in experiment [5] and in [6] was > 100 µM (inactive) each time. Further, the GI50 is > 100 µM (inactive) in experiment [7]; > 100 µM (inactive) in [8]; > 100 µM (inactive) in experiment [9]; > 100 µM (inactive) in [10]; > 100 µM (inactive) in [11]; 44.3 µM (inactive) in experiment [12]. For the same compound, the GI50 in experiment [13] was > 100 µM (inactive); in [14], 87.7 µM (inactive); in [15], > 100 µM (inactive); in experiment [16], > 100 µM (inactive); in [17], > 100 µM (inactive).

Regarding `COc1ccc(/C=C\c2cc(OC)c(OC)c(OC)c2)cc1`, the GI50 in [1] is 43.5 µM (inactive); in experiment [2], 0.0291 µM (active); in experiment [3], 0.000389 µM (active); in [4] it was 0.000766 µM (active); in experiment [5], 0.000357 µM (active); in experiment [6] it was 0.000284 µM (active). Besides, the GI50 was 0.00051 µM (active) in experiment [7]; 0.0013 µM (active) in experiment [8]; 0.000124 µM (active) in experiment [9]; 0.000653 µM (active) in [10]; < 0.01 µM (active) in [11]; 0.000506 µM (active) in [12]. In addition, the GI50 is 0.000832 µM (active) in experiment [13]; 0.000507 µM (active) in experiment [14]; 0.000499 µM (active) in [15]; 0.000843 µM (active) in experiment [16]; < 0.01 µM (active) in experiment [17].

`CC1=C(c2nc3ccccc3s2)C(=O)OC1(C)C`: the GI50 in [1], in experiment [2], in experiment [3], in [4], in experiment [5] and in experiment [6] was > 100 µM (inactive) each time. The GI50 in [7], in experiment [8], in experiment [9], in experiment [10], in experiment [11] and in experiment [12] was > 100 µM (inactive) each time. Besides, the GI50 in experiment [13], in experiment [14], in [15], in experiment [16] and in experiment [17] was > 100 µM (inactive) throughout.

Take `Cc1n[nH]c(=S)n(C)c1=S`: the GI50 in experiment [1], in experiment [2], in experiment [3], in [4], in experiment [5] and in experiment [6] was > 100 µM (inactive) in each case. The GI50 in experiment [7], in experiment [8], in [10], in [11], in experiment [12] and in experiment [13] was > 100 µM (inactive) each time. For the same compound, the GI50 in experiment [14], in [15], in experiment [16] and in [17] was > 100 µM (inactive) each time.

For the origin of these results see ChEMBL document CHEMBL1201862, “PubChem BioAssay data set” (2004).
